From patent US5459150A, “Indole derivatives which inhibit leukotriene biosynthesis” (Abbott Laboratories, priority 1993, dated 1995)
Structures can show the parent of a compound that is named as a salt.

Assays:
[1] = test system: LTB4 biosynthesis in human polymorphonuclear leukocytes (PMNL); test: Inhibition of LTB4 biosynthesis in human PMNL (calcium ionophore A23187-induced); type: cell-based; details: for IC50: A23187 8.3 μM, 15 min preincubation; for Human PMNL, inhibition of LTB4 biosynthesis, % @ 1.6: @ 1.6 (μM)
Procedure: (§1) Inhibition of leukotriene biosynthesis by representative compounds of the present invention was evaluated in assays involving calcium ionophore-induced LTB4 biosynthesis expressed by human polymorphonuclear leukocytes (PMNL) or human whole blood. Human PMNL were isolated from heparinized (20 USP units/mL) venous blood using Ficoll-Hypaque Mono-Poly Resolving Medium. Human PMNL suspensions (5×10^6 cells/250 μL) were preincubated with test compounds or vehicle for 15 min at 37° C. followed by calcium ionophore A23187 challenge (final concentration of 8.3 μM) and the reaction terminated after 10 rain by adding two volumes of methanol containing prostaglandin B2 as an internal recovery standard. The methanol extracts were analyzed for LTB4 content by HPLC or radioimmunoassay.

[2] = test system: LTB4 biosynthesis in human whole blood; test: Inhibition of LTB4 biosynthesis in human whole blood (calcium ionophore A23187-induced); type: cell-based; details: human heparinized whole blood, A23187, 30 min at 37° C.
Procedure: as §1
The assay using human heparinized whole blood was incubated for 30 minutes at 37° C. after adding […] of ionophore A23187. The plasma layer was obtained by centrifugation and deproteinized by the addition of four volumes of methanol. The methanol extract was analyzed for LTB4 by HPLC or radioimmunoassay.

leukotriene biosynthesis = test: Inhibition of leukotriene biosynthesis in vivo, rat peritoneal anaphylaxis model; details: one hour prior to antigen challenge
Procedure: Inhibition of the biosynthesis of leukotrienes in vivo after oral administration of compound was determined using a rat peritoneal anaphylaxis model in a similar manner as that described by Young and coworkers (Young, P. R.; Dyer, R. D.; Carter, G. W. Fed. Proc., Fed. Am. Soc. Exp. Biol. 1985, 44, 1185). In this model rats were injected intraperitoneally (ip) with rabbit antibody to bovine serum albumin (BSA) and three hours later injected ip with BSA to induce an antigen-antibody response. Rats were sacrificed 15 minutes after this challenge and the peritoneal fluids were collected and analyzed for leukotriene levels. Test compounds were administered by garage one hour prior to the antigen challenge. Percent inhibition values were determined by comparing the treatment group to the mean of the control group. Compounds of this invention are orally effective in preventing the in vivo bio-synthesis of leukotrienes as illustrated for representative examples shown in Table 2.

SMILES	IC50 [1]	IC50 ([2]; Homo sapiens, 0.5 h)	also measured
CC(C)c1ccc2c(c1)c(SC(C)(C)C)c(CC(C)(C)CNC(N)=O)n2Cc1ccc(Cl)cc1 [Example 5, N-2,2-dimethyl-3-[(1-(4-chlorophenylmethyl)-3-(1,1-dimethylethyl-thio)-5-(1-methylethyl))indol-2-yl]propyl urea]	180 nM	710 nM	Percent Leukotriene inhibition at 100 μmol/kg oral dose (leukotriene biosynthesis): 86%
CC(C)c1ccc2c(c1)c(SC(C)(C)C)c(CC(C)(C)C=NNC(=N)N)n2Cc1ccc(Cl)cc1 [Example 12, 1-(4-chlorophenylmethyl)-3-(1,1-dimethylethylthio)-2-[3-(2,2-dimethyl-1-guanidinylimino)propyl]-(1-methylethyl)indole]		1300 nM	Human PMNL, inhibition of LTB4 biosynthesis, % @ 3.1 ([1]; @ 3.1 (μM)): 100%
CC(C)c1ccc2c(c1)c(SC(C)(C)C)c([C@@H]1C[C@H]1CN(O)C(N)=O)n2Cc1ccc(Cl)cc1 (relative stereo) [Example 14, N-hydroxy-N-[trans-2-(1-(4-chlorophenylmethyl)-3-(1,1-dimethylethylthio)-5-(1-methylethyl)indol-2-yl)cyclopropyl]methylurea]		2500 nM	Human PMNL, inhibition of LTB4 biosynthesis, % @ 0.78 ([1]; @ 0.78 (μM)): 40%
CC(C)c1ccc2c(c1)c(SC(C)(C)C)c(CC(C)(C)C(=O)NCCNC(=O)N(C)O)n2Cc1ccc(Cl)cc1 [Example 6, N'-hydroxy-N'-methyl-N-2-[3-(1-(4-chlorophenylmethyl)-3-(1,1-dimethylethylthio)-5-(1-methylethyl)indol-2-yl)-2,2-dimethylpropionylamino]ethyl urea]	150 nM	1200 nM	Percent Leukotriene inhibition at 100 μmol/kg oral dose (leukotriene biosynthesis): 86%
CC(C)c1ccc2c(c1)c(SC(C)(C)C)c(CC(C)(C)CN)n2Cc1ccc(Cl)cc1 [Example 21]		1100 nM	
CC(C)c1ccc2c(c1)c(SC(C)(C)C)c(CC(C)(C)NC(=O)N(C)O)n2Cc1ccc(Cl)cc1 [Example 1]	150 nM	1300 nM	
CC(C)c1ccc2c(c1)c(SC(C)(C)C)c(CC(C)(C)CNCCCO)n2Cc1ccc(Cl)cc1 [Example 7, 1-(4-chlorophenylmethyl)-2-[2,2-dimethyl-3-((3-hydroxypropyl)amino)propyl]-3-(1,1-dimethylethylthio)-5-(1-methylethyl)indole]	4200 nM	6900 nM	
CC(C)c1ccc2c(c1)c(SC(C)(C)C)c(CC(C)(C)C(=O)O)n2Cc1ccncc1 [Example 15, 3-[3-(1,1-dimethylethylthio)-5-(1-methylethyl)-1-(4-pyridinylmethyl)indol-2-yl]-2,2-dimethylpropanoic acid]	90 nM	900 nM	
CC(C)c1ccc2c(c1)c(SC(C)(C)C)c(CC(C)(C)NC(=O)NCCC(=O)O)n2Cc1ccc(Cl)cc1 [Example 10]		2500 nM	Human PMNL, inhibition of LTB4 biosynthesis, % @ 1.6 [1]: 70%
CC(C)c1ccc2c(c1)c(SC(C)(C)C)c([C@@H]1C[C@H]1CNC(N)=O)n2Cc1ccc(Cl)cc1 (relative stereo) [Example 23, N-[trans-2-(1-(4-chlorophenylmethyl)-3-(1,1-dimethylethylthio)-5-(1-methylethyl)indol-2-yl)cyclopropyl]methyl urea]	400 nM	2700 nM	
CCOC(=O)CCNC(=O)NC(C)(C)Cc1c(SC(C)(C)C)c2cc(C(C)C)ccc2n1Cc1ccc(Cl)cc1 [Example 9]		5600 nM	Human PMNL, inhibition of LTB4 biosynthesis, % @ 1.6 [1]: 77%
CC(C)c1ccc2c(c1)c(SC(C)(C)C)c(CC(C)(C)NC(=O)NCCC(=O)O)n2Cc1ccc(Cl)cc1 [Example 13, 3-[3-(1-(4-chlorophenylmethyl)-3-(1,1dimethylethylthio)-5-(1-methylethyl)indol-2-yl)-2-aminocarbonylamino-2-methylpropyl]propanoic acid, sodium salt]			IC50 ([2]; sodium salt): 3000 nM
CC(C)c1ccc2c(c1)c(SC(C)(C)C)c(CC(C)(C)CN(O)C(N)=O)n2Cc1ccc(Cl)cc1 [Example 3, N-hydroxy-N-2,2-dimethyl-3-[(1-(4-chlorophenylmethyl)-3-(1,1-dimethylethylthio)-5-(1-methylethyl))indol-2-yl]propyl urea]	170 nM	1600 nM	Percent Leukotriene inhibition at 100 μmol/kg oral dose (leukotriene biosynthesis): 68%
CC(C)c1ccc2c(c1)c(SC(C)(C)C)c(CCNC(=O)N(C)O)n2Cc1ccc(Cl)cc1 [Example 4, N'-hydroxy-N'methyl-N-2-[(1-(4-chlorophenylmethyl)-3-(1,1-dimethylethylthio)-5-(1-methylethyl))indol-2-yl]ethyl urea]	570 nM	6700 nM	
CC(C)c1ccc2c(c1)c(SC(C)(C)C)c(CC(C)(C)C=NO)n2Cc1ccc(Cl)cc1 [Example 2, 2,2-dimethyl-3-[1-(4-chlorophenylmethyl)-3-(1,1-dimethylethylthio)-5-(1-methylethyl)indol-2-yl]propionaldehyde oxime]	270 nM	2200 nM	Percent Leukotriene inhibition at 100 μmol/kg oral dose (leukotriene biosynthesis): 46%
CCOC(=O)C(C)(C)Cc1c(C(=O)CCNC(=O)N(C)O)c2cc(C(C)C)ccc2n1Cc1ccc(Cl)cc1 [Example 11, N'-hydroxy-N'-methyl-N-'[1-(4-chlorophenylmethyl)-5-(1-methylethyl)-2-((2-methyl-2-ethoxycarbonyl)propyl)indol-2-yl]-3-oxopropylurea]	1500 nM		IC50 ([2]; 0.5 h): 6900 nM
CC(C)c1ccc2c(c1)c(SC(C)(C)C)c(CC(C)(C)C(=O)NCCC(=O)O)n2Cc1ccc(Cl)cc1 [Example 6.2]	310 nM	1400 nM	
CC(C)c1ccc2c(c1)c(SC(C)(C)C)c(CC(C)(C)C(=O)O)n2Cc1cccs1 [Example 16]		5500 nM	
CC(C)c1ccc2c(c1)c(SC(C)(C)C)c(CC(C)(C)C=NOCC(=O)O)n2Cc1ccc(Cl)cc1 [Example 20]		680 nM	Percent Leukotriene inhibition at 100 μmol/kg oral dose (leukotriene biosynthesis): 99%
CC(C)c1ccc2c(c1)c(SC(C)(C)C)c(CC(C)(C)NC(N)=O)n2Cc1ccc(Cl)cc1 [Example 8, N-2-[2-methyl-3-(1-(4-chlorophenylmethyl)-3-(1,1-dimethylethylthio)-5-(1-methylethyl)indol-2-yl)]propyl urea]	400 nM	5200 nM	
CC(=O)NCC(C)(C)Cc1c(SC(C)(C)C)c2cc(C(C)C)ccc2n1Cc1ccc(Cl)cc1 [Example 22]		2100 nM	
